# Measurements taken from patent publication US20040034001A1, “Treatment of hypertension in women receiving hormone replacement therapy” (Schering AG, priority 2002, published 2004).
# System: hypertensive postmenopausal women
# Assay: Post hoc analysis of blood pressure in women with elevated BP at baseline, multicenter 1-year endometrium study, no ACE inhibitor
# Assay type: in vivo, human
# Settings: after 11 weeks; subset with baseline systolic BP>=140 mm Hg and or diastolic BP>=90 mm Hg
# Description: Administration of DRSP/E2 to Hypertensive Postmenopausal Women not being Treated with an ACE Inhibitor.
# In a multicenter, double-blind randomized study examining the effect on the endometrium of 1142 postmenopausal women treated for 1 year with 1 of 4 doses of DRSP (0.5,1,2, and 3 mg) compared with E2 alone, mean systolic and diastolic blood pressure decreased from baseline for all treatment groups.
structure (smiles),measurement,value
"C[C@]12CC[C@@H]3c4ccc(O)cc4CC[C@H]3[C@@H]1CC[C@@H]2O [E2, 17-β-estradiol]",mean decrease in systolic blood pressure,−3.7 mm Hg
